Reference: patent US5985837A, “Dolastatin 15 derivatives” (BASF Aktiengesellschaft, priority 1998, dated 1999)

Assays:
[1] = test system: tumor cells such as the HT-29 colon carcinoma or LX-1 lung tumor; experiment: Cytotoxicity, microculture tetrazolium assay (MTT); assay type: cell-based; details: 48 hours incubation, concentration giving T/C of 50% growth inhibition, cell line not given
Description: Cytotoxicity was measured using a standard methodology for adherent cell lines, such as the microculture tetrazolium assay (MTT). Details of this assay have been published (Alley, M. C. et al., Cancer Research 48:589-601, 1988). Exponentially growing cultures of tumor cells such as the HT-29 colon carcinoma or LX-1 lung tumor were used to make microtiter plate cultures. Cells were seeded at 5000-20,000 cells per well in 96-well plates (in […] of media), and grown overnight at 37° C. Test compounds were added, in 10-fold dilutions varying from 10^-4 M to 10^-10 M. Cells were then incubated for 48 hours. To determine the number of viable cells in each well, the MTT dye was added ([…] of a 3 mg/mL solution of 3-(4,5-dimethylthiazol-2-yl)-2,5-diphenyltetrazolium bromide in saline). This mixture was incubated at 37° C. for 5 hours, and then […] of 25% SDS, pH 2, was added to each well. After an overnight incubation, the absorbance of each well at 550 nm was read using an ELISA reader. The values for the mean ±SD of data from replicated wells were calculated, using the formula % T/C (% viable cells treated/control). The concentration of test compound which gives a T/C of 50% growth inhibition was designated as the IC50.

[2] = test system: National Cancer Institute's P388 lymphocytic leukemia (PS system) cell line; details: background statement; cited from earlier work
[3] = background statement on Dolastatin 15; cited from earlier work

Compound | IC50 [1] | inhibition of cell growth [2] | solubility in aqueous systems [3]
CC(C)[C@H](NC(=O)[C@H](C(C)C)N(C)C)C(=O)N(C)[C@H](C(=O)N1CCC[C@H]1C(=O)Nc1ccccc1C(=O)c1ccccc1)C(C)C [IV-15, 2-(Me2 Val-Val-MeVal-Pro-NH)--C6 H4 --CO--C6 H5] | 0.07 µM |  | 
CC(C)[C@H](NC(=O)[C@H](C(C)C)N(C)C)C(=O)N(C)[C@H](C(=O)N1CCC[C@H]1C(=O)Nc1ccccc1C(=O)N1CCC(c2ccccc2)O1)C(C)C (stereo partly drawn) [Compound I-64, 2-(Me2 Val-Val-MeVal-Pro-NH)--C6 H4 --CO--N(--(CH2)2 --CH(C6 H5)O--)] | 0.25 µM |  | 
CNC(=O)c1ccccc1NC(=O)[C@@H]1CCCN1C(=O)[C@H](C(C)C)N(C)C(=O)[C@@H](NC(=O)[C@H](C(C)C)N(C)C)C(C)C [Compound I-1, 2-(Me2 Val-Val-MeVal-Pro-NH)--C6 H4 C(O)NHCH3] | 0.4 µM |  | 
CC(C)[C@H](NC(=O)[C@H](C(C)C)N(C)C)C(=O)N(C)[C@H](C(=O)N1CCC[C@H]1C(=O)Nc1ccccc1C(=O)NCCCO)C(C)C [Compound I-86, 2-(Me2 Val-Val-MeVal-Pro-NH)--C6 H4 --CO--NH(--(CH2)3 --OH)] | 0.6 µM |  | 
CC(C)[C@H](NC(=O)[C@H](C(C)C)N(C)C)C(=O)N(C)[C@H](C(=O)N1CCC[C@H]1C(=O)Nc1ccccc1C(=O)NCc1ccccc1)C(C)C [Compound I-2, 2-(Me2 Val-Val-MeVal-Pro-NH)--C6 H4 C(O)NHCH2 C6 H5] | > 1 µM |  | 
Dolastatin 15 |  | markedly inhibits the growth | poor solubility in aqueous systems
CC(C)[C@H](NC(=O)[C@H](C(C)C)N(C)C)C(=O)N(C)[C@H](C(=O)N1CCC[C@H]1C(=O)Nc1cccc(C(=O)NCc2ccccc2)c1)C(C)C [II-2, 3-(Me2 Val-Val-MeVal-Pro-NH)--C6 H4 --CO--NH CH2 C6 H5] | > 1 µM |  | 
CC(C)[C@H](NC(=O)[C@H](C(C)C)N(C)C)C(=O)N(C)[C@H](C(=O)N1CCC[C@H]1C(=O)Nc1ccccc1C(=O)NCCC(O)c1ccccc1)C(C)C (stereo partly drawn) [Compound I-87, 2-(Me2 Val-Val-MeVal-Pro-NH)--C6 H4 C(O)NH((CH2)2 CH(C6 H5)OH)] | 0.2 µM |  | 
CNC(=O)c1cc(OC)c(OC)cc1NC(=O)[C@@H]1CCCN1C(=O)[C@H](C(C)C)N(C)C(=O)[C@@H](NC(=O)[C@H](C(C)C)N(C)C)C(C)C [Compound I-6, 2-(Me2 Val-Val-MeVal-ProNH)-4,5-bis(methoxy)C6 H2 C(O)NHCH3] | 0.2 µM |  | 
CC(C)[C@H](NC(=O)[C@H](C(C)C)N(C)C)C(=O)N(C)[C@H](C(=O)N1CCC[C@H]1C(=O)Nc1ccccc1C(=O)Nc1ccccc1)C(C)C [Compound I-4, 2-(Me2 Val-Val-MeVal-Pro-NH)--C6 H4 C(O)NHC6 H5] | 0.4 µM |  | 
CC(C)NC(=O)c1ccccc1NC(=O)[C@@H]1CCCN1C(=O)[C@H](C(C)C)N(C)C(=O)[C@@H](NC(=O)[C@H](C(C)C)N(C)C)C(C)C [Compound I-3, 2-(Me2 Val-Val-MeVal-Pro-NH)--C6 H4 C(O)NHCH(CH3)2] | 0.5 µM |  | 
CC(C)[C@H](NC(=O)[C@H](C(C)C)N(C)C)C(=O)N(C)[C@H](C(=O)N1CCC[C@H]1C(=O)Nc1ccccc1C(=O)Nc1nccs1)C(C)C [Compound I-5, 2-(Me2 Val-Val-MeVal-Pro-NH)--C6 H4 C(O)NH(thiazol-2-yl)] | 0.15 µM |  | 
CNC(=O)c1cccc(NC(=O)[C@@H]2CCCN2C(=O)[C@H](C(C)C)N(C)C(=O)[C@@H](NC(=O)[C@H](C(C)C)N(C)C)C(C)C)c1 [II-1, 3-(Me2 Val-Val-MeVal-Pro-NH)--C6 H4 --CO--NHCH3] | > 1 µM |  | 
2-(Me2 Val-Val-MeVal-Pro-NH)--C6 H4 --CO--CH3 [IV-1] | > 1 µM |  | 
CON(C)C(=O)c1ccccc1NC(=O)[C@@H]1CCCN1C(=O)[C@H](C(C)C)N(C)C(=O)[C@@H](NC(=O)[C@H](C(C)C)N(C)C)C(C)C [Compound I-60, (2)-(Me2 Val-Val-MeVal-Pro-NH)-C6 H4 -CON(CH3) (OCH3)] | 0.4 µM |  | 
